# In PMC6402034 (Biochemical Journal, 2019):
# Legend:
# [1] = target: T1, ALA2 (aminophospholipid ATPase 2) (Arabidopsis thaliana, UniProt P98205); assay: lipid-stimulated ATPase activity of purified complex; type: biochemical
# T1 sequence (P98205 1-1107): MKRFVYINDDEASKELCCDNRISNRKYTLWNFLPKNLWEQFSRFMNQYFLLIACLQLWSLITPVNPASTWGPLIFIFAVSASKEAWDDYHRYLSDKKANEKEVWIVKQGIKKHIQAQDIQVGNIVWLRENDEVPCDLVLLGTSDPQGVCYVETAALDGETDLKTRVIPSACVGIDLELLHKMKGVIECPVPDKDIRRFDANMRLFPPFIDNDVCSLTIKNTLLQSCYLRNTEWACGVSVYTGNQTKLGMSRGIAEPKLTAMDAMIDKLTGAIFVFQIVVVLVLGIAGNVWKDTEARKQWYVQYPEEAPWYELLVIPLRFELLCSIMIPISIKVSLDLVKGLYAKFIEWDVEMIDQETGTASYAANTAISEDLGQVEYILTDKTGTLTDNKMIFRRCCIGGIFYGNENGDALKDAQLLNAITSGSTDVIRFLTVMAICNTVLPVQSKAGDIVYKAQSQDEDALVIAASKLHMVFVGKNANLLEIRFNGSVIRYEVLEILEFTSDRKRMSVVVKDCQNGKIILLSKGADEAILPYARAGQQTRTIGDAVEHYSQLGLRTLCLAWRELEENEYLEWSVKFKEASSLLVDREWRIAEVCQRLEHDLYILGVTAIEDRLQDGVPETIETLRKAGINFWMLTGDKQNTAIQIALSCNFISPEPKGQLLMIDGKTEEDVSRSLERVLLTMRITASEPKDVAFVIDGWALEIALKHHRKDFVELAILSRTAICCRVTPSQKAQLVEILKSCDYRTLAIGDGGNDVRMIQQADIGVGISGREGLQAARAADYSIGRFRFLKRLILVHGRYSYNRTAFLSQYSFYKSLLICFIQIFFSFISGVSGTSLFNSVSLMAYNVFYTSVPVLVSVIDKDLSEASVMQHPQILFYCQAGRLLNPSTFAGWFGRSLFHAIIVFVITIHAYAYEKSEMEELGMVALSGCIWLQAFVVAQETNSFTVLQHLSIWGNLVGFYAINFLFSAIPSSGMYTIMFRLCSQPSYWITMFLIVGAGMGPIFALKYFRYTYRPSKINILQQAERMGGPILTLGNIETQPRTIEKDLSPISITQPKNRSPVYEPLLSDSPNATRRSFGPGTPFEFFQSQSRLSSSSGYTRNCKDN
# T1 sequence (Q8L8W0 2-350 partner): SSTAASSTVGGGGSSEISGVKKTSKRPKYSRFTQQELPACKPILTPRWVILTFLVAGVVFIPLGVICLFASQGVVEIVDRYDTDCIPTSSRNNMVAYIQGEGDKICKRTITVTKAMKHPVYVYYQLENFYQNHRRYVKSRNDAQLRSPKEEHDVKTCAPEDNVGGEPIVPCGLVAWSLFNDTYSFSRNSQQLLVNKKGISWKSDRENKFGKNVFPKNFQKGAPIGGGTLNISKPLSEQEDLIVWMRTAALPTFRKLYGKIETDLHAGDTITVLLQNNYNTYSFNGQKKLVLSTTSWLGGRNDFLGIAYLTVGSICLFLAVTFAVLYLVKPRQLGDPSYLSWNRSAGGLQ
# [2] = target: T1, ALA2 (aminophospholipid ATPase 2)
# [3] = target: T1, ALA2 (aminophospholipid ATPase 2); assay: lipid-stimulated ATPase activity of purified complex; type: biochemical; remark: listed apart in the source
smiles,measurement,setting,value
"CCCCCCCCCCCCCCCC(=O)OC[C@@H](O)COP(=O)(O)OC[C@H](N)C(=O)O [Lyso-PS, 1-hexadecanoyl-sn-glycero-3-phospho-L-serine]",EC50,[1],34 ± 7 µM
[O]=[V]([OH])([OH])[OH] [orthovanadate],IC50,[2],~22 µM
"CCCCCCCC/C=C\CCCCCCCC(=O)O[C@H](COC(=O)CCCCCCCCCCCCCCC)COP(=O)(O)OC[C@@H](N)C(=O)O [P-D-S, 1-palmitoyl-2-oleoyl-sn-glycero-3-phospho-D-serine]",lipid-stimulated ATPase activity of purified complex,[3],The stereoisomer phosphatidyl-D-serine (P-D-S) was less than half as effective at stimulating ATPase activity compared with PS
